We go through 89 compounds from a melting point compilation (Tetko et al.; mined from patent text by program, amines drawn as free bases though some values may be those of a salt).

The compound `COC(=O)c1cccc2[nH]cc(CC[N+](=O)[O-])c12` showed a melting point of 103 °C.
In the case of `Cc1cc(-c2nc3cccnn3c2-c2ccnc(NC(=O)c3ccccn3)c2)ccc1F`, the melting point was 234 to 235 °C.
The compound `C[Si](C)(C)OC(Cn1cncn1)(Cn1cncn1)c1ccc(F)cc1F` came in with a melting point of 69 to 71 °C.
As for `CC(C)(O)Cn1cnc2c(N)nc3c(c21)CCCC3`, the melting point was in the range of 260 to 261 °C.
Compound `O=C1c2ccccc2-c2c1c1ccccc1c(=O)n2CCCCCCCNS(=O)(=O)c1ccc(Br)cc1` had a melting point of 160 to 161 °C.
Then `CCC1(COC(=O)C(C)(C)C)COC(=O)C(CC)(CC)N1` (centres undefined), with 37 to 41 °C; and `COc1cc2c(=O)c(S(C)=O)cn(C)c2cc1Cl` (centres undefined), with 263 to 265 °C; and `COc1ccc(Oc2ccc3ccc(NC(=O)c4ccccc4)nc3n2)cc1`, with 171 °C.
Then `COC(=S)c1cc(N)ccc1C`, with 96 to 98 °C; and `C/C=C/CC(=O)N[C@H]1CC[C@H](CCN2CCN(c3nccc4c3CCO4)CC2)CC1`, with 176 °C.
As to `Cc1cc(N(C)C)cc(C)c1C1OC(C)(C)N=C1c1ccccc1` (centres undefined), the melting point was 105 °C.
`O=Cc1[nH]ccc1-c1ccc(I)cc1` came in with a melting point of 153 to 154 °C.
For the compound `CCCCCCNC(=O)Nc1ccccc1C(=O)NCC1CCN(C(c2ccccc2)c2ccccc2)CC1`, the melting point lay in the range of 168 to 169 °C.
Then `CS(=O)(=O)c1ccc(-c2cc(C(=O)c3cc(-c4ccc(S(C)(=O)=O)cc4)c(N4CCOCC4)s3)sc2N2CCOCC2)cc1`, with 235 to 236 °C.
Then `O=C1Nc2cccc(-c3cccc(NS(=O)(=O)c4cc(S(=O)(=O)c5ccccc5)cs4)c3)c2/C1=C/c1ccc[nH]1`, with 132 to 134 °C; and `CN(C)c1cc(CC(C#N)=CNc2ccccc2)cc(N(C)C)c1N(C)C`, with 179 to 181 °C.
In the case of `C=CCN(CC=C)Cc1noc(-c2ncn3c2[C@@H]2CCN2C(=O)c2c-3cccc2C(F)(F)F)n1`, the melting point was 147 to 150 °C.
Turning to `CCOC(=O)C(CBr)=C1CC(=O)CCC1=N`, the melting point fell in the range of 170 to 175 °C.
Consider `O=C(C1CSC(c2cccnc2)N1)N1CCN(c2ncccn2)CC1` (centres undefined), for which the melting point is 156 to 159 °C.
Then `Nc1ccc(OS(=O)(=O)c2ccc(-n3ccnc3)cc2)cc1[N+](=O)[O-]`, with 209 °C; and `CN1C(=O)C(c2ccc(Cl)cc2)S(=O)C1c1cccnc1` (centres undefined), with 149 to 153 °C.
Compound `CCCCCCCCC1(CCCCCCCC)c2cc(Br)ccc2-c2ccc(Br)cc21` yielded a melting point of 52 to 54 °C.
For the compound `CC1(c2ccccc2)SC(=S)N(Nc2ccccc2)C1=N` (centres undefined), the melting point lay in the range of 118 to 119 °C.
Then `CCC[C@H]1CC[C@H](c2ccc(OCC)c(C#N)c2)CC1`, with 32 °C; and `O=C(O)c1ccc(C(c2ccccc2)c2ccccc2)cn1`, with 189 to 191 °C; and `COc1ccc(Cl)c(Oc2c(CO)nc(N3CCOCC3)nc2NS(=O)(=O)c2ccc(C(C)(C)C)cc2)c1`, with 103 °C.
Then `COc1ccccc1-c1cncc(OC2SCC(O)C(O)C2O)c1` (centres undefined), with 209 to 211 °C; and `c1ccc(CN(Cc2ccccc2)c2nccc(-c3ccc(-c4ccc(N(c5ccccc5)c5ccccc5)cc4)cc3)n2)cc1`, with 164 to 165 °C; and `CCCN1NCc2c(C3C(=O)Nc4ccc(Cl)cc43)ncnc21` (centres undefined), with 293 to 297 °C.
Then `O=C1C(=C2C=C(c3ccccc3)S(=O)(=O)C(c3ccccc3)=C2)C(=O)c2ccccc21`, with 235 to 236 °C.
`Cn1c(=O)c(-c2ccc(Cl)cc2Cl)cc2c3cc(-c4c[nH]nn4)ccc3n(C)c21` yielded a melting point of 274 to 275 °C.
Then `O=C1CCC(N2C(=O)c3cccc(OCc4ccc(CN5CCC(c6ccc(F)cc6F)CC5)cc4)c3C2=O)C(=O)N1` (centres undefined), with 153 to 155 °C; and `COC(=O)CCCCCCC1=CCc2cc(OC)ccc21`, with 30 to 31.5 °C.
Regarding `N#Cc1c(CCC(=O)O)oc2cc(O)ccc2c1=O`, the melting point lay in the range of 300 to 301 °C.
Then `COC(=O)Cn1c(=O)c2ccccc2n(CCCCCl)c1=O`, with 119 to 120 °C; and `CCCCCCCCCCNC(CCCNC(=N)N)C(=O)O` (centres undefined), with 100 °C.
In the case of `CN(C)C(=N[N+](=O)[O-])NCc1cnc(Cl)s1`, the melting point lay in the range of 155 to 160 °C.
`CC(C)(C)C(=O)OCC(CCn1cnc2c(=O)[nH]c(N)nc21)COC(=O)C(C)(C)C` registered a melting point of 225 to 237 °C.
On to `COc1ccccc1-c1ccc(OCC(=O)Nc2cscc2C(=O)O)nc1`, for which the melting point fell in the range of 194 to 197 °C.
Take `C/C(=C\c1ccc(Cc2cccnc2)cc1)C(=O)O`: the melting point was in the range of 164 to 166 °C.
Consider `OCCON=Cc1ccc2ccccc2n1`, for which the melting point is 128 °C.
Turning to `O=C(O)C(Oc1ccccc1)c1ccc(Oc2ccc(Cl)cc2)cc1` (centres undefined), the melting point was in the range of 114 to 116 °C.
`C=CCCC[C@H]1CC[C@H](c2ccc(C(C)=O)cc2)CC1` gave a melting point of 47.6 °C.
Then `COc1ccc(S(=O)(=O)Nc2ccccc2NC(=O)c2ccc(F)cc2)cc1`, with 169 to 170 °C; and `COc1cc2c(cc1OC)C(=CN1CCN(C(=O)c3ccco3)CC1)C(=O)N2`, with 158 to 160 °C; and `CCCCCCCCCCC1C(=O)NC(=O)NC1=O`, with 190 °C.
With `COc1cc2c(c3c1OC(C)(C)C3)C(c1cccc(NS(=O)(=O)N(C)C)c1)=NC(C)(C)C2`, the melting point fell in the range of 134 to 136 °C.
For the compound `CCCSC1=NSc2ccccc2N1Cc1ccc(-c2ccccc2C(=O)O)cc1`, the melting point lay in the range of 75 to 85 °C.
As to `CCOc1cc(C=CC(=O)OC)ccc1OCc1coc(-c2ccccc2)n1`, the melting point is 125 to 126 °C.
Then `Cc1cc(NCCNC(=O)CCc2cc(C(C)(C)C)c(O)c(C(C)(C)C)c2)nc(Cl)c1C#N`, with 162 to 165 °C; and `COc1ccc(C2(C#Cc3nccn3C)CCC(=O)CC2)cc1OC1CCCC1`, with 137 to 138 °C.
In the case of `CCCCc1nn2ccccc2c1C(=O)c1ccc(C#N)cc1`, the melting point is 116 °C.
In turn, `Nc1nccc(C=Cc2ccccn2)c1[N+](=O)[O-]` displayed a melting point of 161 to 163 °C.
Then `CN(C)CCCNc1ccnc2cc3c(cc12)OCO3`, with 178 to 181 °C; and `CCCn1ncc2c(=O)[nH]c(-c3cc(S(=O)(=O)Cl)ccc3OCC)nc21`, with 177 to 180 °C; and `Clc1cc(Cl)cc(N=Cc2ccccc2)c1`, with 52 to 53 °C.
Then `CCn1c2c(c3ccccc31)SCCC2(C)C=O` (centres undefined), with 88.5 to 90 °C.
Then `CCc1cccc2c1S(=O)(=O)c1ccccc1O2`, with 101 to 103 °C; and `CC(C)(C)C(=O)COc1ccc(-c2ccc(Cl)cc2)cc1`, with 90 °C.
For `Cc1nc2c(N)nc3ccccc3c2n1CC(C)(C)CC1(C)OCCO1`, the melting point lay within 209 to 211 °C.
With `Cc1nc(-c2ccccc2)ncc1CBr`, the melting point is 65 to 66 °C.
On to `CCCCCCCCOC(=O)/C(C#N)=C/C=C/N(C)C`, for which the melting point lay within 80 to 81 °C.
Consider `NC(=O)c1ncn2c(-c3ccc(N4CCOCC4)cc3)ccnc12`, for which the melting point was in the range of 274 to 277 °C.
Then `COC(=O)c1ccc(SC#N)c([N+](=O)[O-])c1`, with 93 to 96 °C; and `COc1ccccc1C1(O)C(O)CC(C)(C)C2CN(Cc3ccccc3)CC21` (centres undefined), with 190 °C.
In the case of `Cc1ccc2c3c(ccc2n1)OCC(CN1C2CCC1CC(O)(c1ccccc1)C2)O3` (centres undefined), the melting point was 162 to 165 °C.
Then `O=C(c1ccccc1)c1c(Cl)cc2n1CCC2C(=O)O` (centres undefined), with 190 °C.
Then `Cn1cc(-c2ccccc2)c(=O)c(-c2cccc(-c3ccccc3)c2)c1`, with 186 to 190 °C.
Compound `CCOC(=O)C1CCC(C(=O)OCC)N1C(=O)C(N)Cc1c[nH]c2ccccc12` (centres undefined) had a melting point of 144 to 149 °C.
The compound `CS(=O)(=O)Nc1ccc2[nH]c(=O)n(CCCCN3CC=C(c4ccccc4)CC3)c(=O)c2c1` came in with a melting point of 193 to 195 °C.
`N#CCCNC(=O)c1cccc(-c2ccc3occ(-c4ccc(Cl)cc4Cl)c3c2)c1`: the melting point lay within 159 to 161 °C.
Turning to `CCn1c(=O)c2nc(C=NO)cn2c2ccccc21`, the melting point is 286 to 288 °C.
Then `CCOC(=O)C(CC(C)C)NC(=O)N1CCc2cc(S(=O)(=O)N3CCN(c4cccc(Cl)c4)CC3)ccc21` (centres undefined), with 76 to 77 °C.
With `COc1nc(OC)c(I)c(C(=O)O)n1`, the melting point lay within 125 to 126 °C.
As for `Cc1cc2nc(C(=O)O)c(=O)[nH]c2cc1C`, the melting point was in the range of 276 to 285 °C.
`COc1cc2c(c(OC)c1/C=C/c1ccc(CN)cc1)C(C)(C)CCC2(C)C` yielded a melting point of 59 to 60 °C.
Then `Nc1cc(CBr)nn1-c1c(Cl)cc(C(F)(F)F)cc1Cl`, with 220 °C.
Then `CN1C2CCCC1CC(NC(=O)c1cccc3nc(-c4ccc(F)cc4)oc13)C2` (centres undefined), with 229 to 231 °C; and `CN(C)C=CC(=O)c1ccc(OCc2ccccc2)cc1`, with 138 °C.
Regarding `O=C1C=C(O)C(=O)c2cc(F)ccc21`, the melting point lay in the range of 206 to 210 °C.
Then `CCOc1nc2ncnn2c2c1cnc1c2cnn1CC`, with 196 to 197 °C; and `COc1cc(C(=O)NC2CCN(C)CC2)ccc1Nc1ncc2c(n1)N(C1CCCC1)CC(F)(F)C(=O)N2C`, with 241 to 243 °C; and `Cc1nn(C)c2nc3n(c(=O)c12)CCS3`, with 229 to 230 °C.
The compound `O=C(c1ccc(Cl)cc1)c1ccc2nccc(C(=O)O)c2c1` returned a melting point of over 260 °C.
For `N#CCC1OC(n2cnc3c(NN4CCCCC4)nc(Cl)nc32)C(O)C1O` (centres undefined), the melting point fell in the range of 192 to 193 °C.
As to `N#Cc1cccc2c1CC(=NN)c1cc(F)ccc1S2`, the melting point lay within 220 to 222 °C.
In turn, `O=[N+]([O-])c1cccc2c(Br)nccc12` returned a melting point of 187 to 188 °C.
`CCOc1nn(-c2ccc(C(F)(F)F)cn2)cc1CCCOc1ccc(OC(C)(C)C(=O)O)cc1` had a melting point of 91 to 92 °C.
Then `CON=C1CCC(N(C)C(=O)c2ccc3nonc3c2)CC1` (centres undefined), with 167 to 168 °C.
